IC50 data for 13 compounds are collected here from patent publication US9233979B2, “Compounds that are ERK inhibitors” (Merck Sharp & Dohme Corp., priority 2012, dated 2016).

The first assay deals with phosphorylated active hERK2 enzyme (Homo sapiens (Human), UniProt P28482). The experiment in a line: Active Human ERK2 (hERK2) Activity Assay (IMAP-FP). Format: biochemical. Particulars: Table 5, 0.5 nM hERK2, 30 μM ATP, 10 point titration, read-out: AERK2 IC50. The procedure, abridged: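 IMAP detection beads in buffer with 24 mM NaCl stopped the reaction, and fluorescence polarization was read after 60 min binding.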
Chain of phosphorylated active hERK2 enzyme (P28482 whole entry): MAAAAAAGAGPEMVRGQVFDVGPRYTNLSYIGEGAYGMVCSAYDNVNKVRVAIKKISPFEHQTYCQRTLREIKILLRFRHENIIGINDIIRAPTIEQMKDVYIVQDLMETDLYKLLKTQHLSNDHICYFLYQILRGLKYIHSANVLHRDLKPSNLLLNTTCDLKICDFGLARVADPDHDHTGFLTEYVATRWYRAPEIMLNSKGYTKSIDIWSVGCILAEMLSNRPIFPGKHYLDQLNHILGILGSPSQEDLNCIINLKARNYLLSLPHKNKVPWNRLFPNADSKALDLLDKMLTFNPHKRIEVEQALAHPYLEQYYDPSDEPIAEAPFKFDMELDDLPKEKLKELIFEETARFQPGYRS
For orientation: IC50 means the midpoint of a concentration-inhibition curve. With `CN1C[C@@H](NC(=O)Nc2cc3[nH]nc(N4CCOCC4)c3cn2)[C@H](c2ccccc2)C1` [Example 42, 1-[(3S,4R)-1-methyl-4-phenylpyrrolidin-3-yl]-3-(3-morpholin-4-yl-1H-pyrazolo[4,3-c]pyridin-6-yl)urea], the IC50 is 0.2 nM.

The same assay, now with this note: Table 6, 0.5 nM hERK2, 30 μM ATP, 10 point titration, read-out: AERK2 IC50.
As for `COC(=O)Nc1n[nH]c2cc(NC(=O)N[C@H](C)c3ccc(Cl)c(F)c3)ncc12` [Example 306, methyl [6-({[(1R)-1-(4-chloro-3-fluorophenyl)ethyl]carbamoyl}amino)-1H-pyrazolo[4,3-c]pyridin-3-yl]-carbamate], the IC50 is 1.5 nM. As for `C[C@@H](NC(=O)Nc1cc2[nH]nc(NC(=O)C3CCC3)c2cn1)c1ccccc1` [Example 201, N-[6-({[(1R)-1-phenylethyl]-carbamoyl}amino)-1H-pyrazolo[4,3-c]pyridin-3-yl]-cyclobutane-carboxamide], the half-maximal inhibitory concentration (IC50) turned out to be 0.5 nM.

Take `CN(C)c1ncccc1CNC(=O)Nc1cc2[nH]nc(N)c2cn1` [Example 274, 1-(3-amino-1H-pyrazolo[4,3-c]-pyridin-6-yl)-3-{[2-(dimethylamino)-pyridin-3-yl]-methyl}urea]: the IC50 came out at 32.4 nM.

Turning to `CC(Nc1n[nH]c2cc(NC(=O)N[C@H](C)c3ccccc3)ncc12)C(F)(F)F` (stereo partly drawn) [Example 407, 1-[(1R)-1-phenylethyl]-3-{3-[(2,2,2-trifluoro-1-methylethyl)amino]-1H-pyrazolo[4,3-c]pyridin-6-yl}urea], the IC50 amounted to 2.4 nM.

In the case of `COC(=O)Nc1n[nH]c2cc(NC(=O)NC3CNc4ccccc4C3)ncc12` (stereo not shown) [Example 293, methyl {6-[(1,2,3,4-tetrahydroquinolin-3-ylcarbamoyl)-amino]-1H-pyrazolo[4,3-c]-pyridin-3-yl}-carbamate], the IC50 came to 5.8 nM. For `C[C@@H](NC(=O)Nc1cc2[nH]nc(NCC3CC(C(C)(C)O)C3)c2cn1)c1ccccc1` (stereo partly drawn) [Example 177, 1-[3-({[3-(1-hydroxy-1-methyl-ethyl)cyclobutyl]-methyl}amino)-1H-pyrazolo[4,3-c]pyridin-6-yl]-3-[(1R)-1-phenylethyl]urea], the IC50 turned out to be 12 nM. `COC(=O)N[C@H](C(=O)Nc1n[nH]c2cc(NC(=O)N[C@H](C)c3ccc(F)cc3)ncc12)C1CCOCC1` [Example 65, methyl [(1S)-2-{[6-({[(1R)-1-(4-fluoro-phenyl)ethyl]carbamoyl}-amino)-1H-pyrazolo[4,3-c]-pyridin-3-yl]amino}-2-oxo-1-(tetrahydro-2H-pyran-4-yl)-ethyl]carbamate]: the IC50 is 365 nM. On the same count and under the same terms, for `COC[C@@H](NC(=O)Nc1cc2[nH]nc(NC3COC3)c2cn1)c1ccccc1` [Example 198, 1-[(1S)-2-methoxy-1-phenylethyl]-3-[3-(oxetan-3-yl-amino)-1H-pyrazolo[4,3-c]-pyridin-6-yl]urea] the value was 0.5 nM. As to `COC(=O)Nc1n[nH]c2cc(NC(=O)NC(c3ccc(Cl)c(Cl)c3)c3cnco3)ncc12` (stereo not shown) [Example 392, methyl [6-({[(3,4-dichlorophenyl)(1,3-oxazol-5-yl)-methyl]carbamoyl}amino)-1H-pyrazolo[4,3-c]-pyridin-3-yl]-carbamate], the IC50 worked out at 2.6 nM.

In the case of `COC(=O)Nc1n[nH]c2cc(NC(=O)N[C@H](C)c3ccc(Cl)cc3)ncc12` [Example 286, methyl [6-({[(1R)-1-(4-chlorophenyl)-ethyl]carbamoyl}-amino)-1H-pyrazolo[4,3-c]pyridin-3-yl]carbamate], the IC50 amounted to 5.2 nM.

For the compound `C[C@@H](NC(=O)Nc1cc2[nH]nc(NC(=O)C3CCCCC3)c2cn1)c1ccccc1` [Example 204, N-[6-({[(1R)-1-phenylethyl]-carbamoyl}amino)-1H-pyrazolo[4,3-c]pyridin-3-yl]-cyclohexane-carboxamide], the IC50 amounted to 5.9 nM. Still for that read-out and setting: under `C[C@@H](NC(=O)Nc1cc2[nH]nc3c2c(n1)COC(=O)N3)c1ccccc1` [Example 368, 1-(8-oxo-2,6,8,9-tetrahydro-7-oxa-1,2,5,9-tetraazabenzo[cd]-azulen-4-yl)-3-[(1R)-1-phenylethyl]urea] stands 1.1 nM.
